# Results reported in patent publication US12365671B2, “Crystalline hydrate of topramezone sodium salt and preparation method therefor” (ROTAM AGROCHEM INTERNATIONAL COMPANY LIMITED, priority 2021, dated 2025).
# Test: Formulation preparation behaviour (jet pulverization, granulation)
# Assay type: physicochemical
# Conditions: e.g. soluble granule, sodium salt
# Source text: The crystalline 2.5 hydrate of topramezone sodium salt of the present invention has huge advantages over the anhydrous form of topramezone sodium salt with respect to formulation preparation. The anhydrous topramezone sodium salt can be prepared according to the preparation method of the topramezone potassium salt alike compound reported in US2002025910A. […] Furthermore, the formulation preparation process is difficult. For example, when preparing the soluble granule, creaming and caking of the ingredients frequently occurs, and granulation thus becomes difficult.
smiles,measurement,value
Cc1c(C(=O)c2cnn(C)c2[O-])ccc(S(C)(=O)=O)c1C1=NOCC1.[Na+] [anhydrous topramezone sodium salt],behaviour during jet pulverization / granulation,easy to agglomerate during jet pulverization
Cc1c(C(=O)c2cnn(C)c2[O-])ccc(S(C)(=O)=O)c1C1=NOCC1.[Na+] [crystalline 2.5 hydrate of topramezone sodium salt],behaviour during jet pulverization / granulation,can be granulated easily
